Experimental findings from PubChem BioAssay AID248 (DTP/NCI, 2004) are described below.

The experiment has as its system L1210 leukemia ip in BDF1 mice, survival T/C. The experiment can be described thus: NCI In Vivo Anticancer Drug Screen. Data for tumor model L1210 Leukemia (intraperitoneal) in B6D2F1 (BDF1) mice. Particulars: endpoint: mean survival time, higher = longer survival. A digest of the protocol: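 Mice bearing the transplanted tumor received compound or vehicle. Survival of the treated group was divided by that of the vehicle-treated control group to give the ratio.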

Setting [1] is: dose: 25.0 mg/kg/injection, schedule: Q04DX002 (ip), vehicle: Klucel (hydroxypropylcellulose) (HPC).
[2] abbreviates: dose: 50.0 mg/kg/injection, schedule: Q04DX002 (ip), vehicle: Klucel (hydroxypropylcellulose) (HPC).
Where [3] appears, read: dose: 100.0 mg/kg/injection, schedule: Q01DX009 (ip), vehicle: Klucel (hydroxypropylcellulose) (HPC).
Setting [4] is: dose: 100.0 mg/kg/injection, schedule: Q04DX003 (ip), vehicle: Klucel (hydroxypropylcellulose) (HPC).
[5] abbreviates: dose: 200.0 mg/kg/injection, schedule: Q01DX009 (ip), vehicle: Klucel (hydroxypropylcellulose) (HPC).
Where [6] appears, read: dose: 200.0 mg/kg/injection, schedule: Q04DX003 (ip), vehicle: Klucel (hydroxypropylcellulose) (HPC).
Setting [7] is: dose: 400.0 mg/kg/injection, schedule: Q01DX009 (ip), vehicle: Klucel (hydroxypropylcellulose) (HPC).
Setting [8] is: dose: 400.0 mg/kg/injection, schedule: Q04DX003 (ip), vehicle: Klucel (hydroxypropylcellulose) (HPC).
Setting [9] is: dose: 100.0 mg/kg/injection, schedule: Q04DX002 (ip), vehicle: saline.
[10] abbreviates: dose: 200.0 mg/kg/injection, schedule: Q04DX002 (ip), vehicle: saline.
The mark [11] stands for this setting: dose: 400.0 mg/kg/injection, schedule: Q04DX002 (ip), vehicle: saline.
Setting [12] is: dose: 100.0 mg/kg/injection, schedule: Q04DX002 (ip), vehicle: Klucel (hydroxypropylcellulose) (HPC).
The mark [13] stands for this setting: dose: 400.0 mg/kg/injection, schedule: Q04DX002 (ip), vehicle: Klucel (hydroxypropylcellulose) (HPC).
[14] abbreviates: dose: 100.0 mg/kg/injection, schedule: Q01DX009 (ip), vehicle: saline.
Setting [15] is: dose: 200.0 mg/kg/injection, schedule: Q01DX009 (ip), vehicle: saline.
Where [16] appears, read: dose: 400.0 mg/kg/injection, schedule: Q01DX009 (ip), vehicle: saline.
Where [17] appears, read: dose: 100.0 mg/kg/injection, schedule: Q04DX003 (ip), vehicle: saline with Tween-80.
[18] abbreviates: dose: 200.0 mg/kg/injection, schedule: Q04DX003 (ip), vehicle: saline with Tween-80.
Setting [19] is: dose: 400.0 mg/kg/injection, schedule: Q04DX003 (ip), vehicle: saline with Tween-80.
The mark [20] stands for this setting: dose: 100.0 mg/kg/injection, schedule: Q04DX002 (ip), vehicle: saline with Tween-80.
[21] abbreviates: dose: 200.0 mg/kg/injection, schedule: Q04DX002 (ip), vehicle: saline with Tween-80.
The mark [22] stands for this setting: dose: 400.0 mg/kg/injection, schedule: Q04DX002 (ip), vehicle: saline with Tween-80.
[23] abbreviates: dose: 25.0 mg/kg/injection, schedule: Q04DX003 (ip), vehicle: Klucel (hydroxypropylcellulose) (HPC).
Where [24] appears, read: dose: 50.0 mg/kg/injection, schedule: Q04DX003 (ip), vehicle: Klucel (hydroxypropylcellulose) (HPC).

Inconclusive results and toxic doses are left out.

`CSC(=NCc1ccccc1)NC1CCCCC1`: the T/C was 100 % of control (dose: 12.5 mg/kg/injection, schedule: Q04DX002 (ip), vehicle: Klucel (hydroxypropylcellulose) (HPC)); 107 % of control under setting [1]; 107 % of control under setting [2].

For `CCSc1nc2nccnc2c(=O)[nH]1`, the T/C reads like this: under setting [3], 98 % of control; under setting [4], 97 % of control; under setting [5], 102 % of control; under setting [6], 92 % of control; under setting [7], 102 % of control; under setting [8], 92 % of control.

Consider `OCC(O)C(O)C(O)C(O)CNC(CO)(CO)CO` (stereo not drawn), for which the T/C is 104 % of control under setting [9], 88 % of control under setting [10] and 95 % of control under setting [11].

With `O=C(COc1ccc(Cl)cc1)Nc1ccccc1`, the T/C under setting [12] was 109 % of control; the T/C (dose: 200.0 mg/kg/injection, schedule: Q04DX002 (ip), vehicle: Klucel (hydroxypropylcellulose) (HPC)) was 98 % of control; the T/C under setting [13] is 103 % of control.

Regarding `C=CCN1C(=O)C2C3C=CC(C3)C2C1=O` (stereo not drawn), the T/C (dose: 6.0 mg/kg/injection, schedule: Q04DX002 (ip), vehicle: Klucel (hydroxypropylcellulose) (HPC)) is 114 % of control; the T/C under setting [1] was 114 % of control; the T/C under setting [2] was 117 % of control; the T/C under setting [12] is 97 % of control.

Regarding `COc1ccc(C(SCC(N)C(=O)O)(c2ccccc2)c2ccccc2)cc1` (stereo not drawn), the T/C is, setting by setting: (dose: 7.4 mg/kg/injection, schedule: Q01DX009 (ip), vehicle: saline) 122 % of control; (dose: 25.0 mg/kg/injection, schedule: Q01DX009 (ip), vehicle: saline) 166 % of control; (dose: 50.0 mg/kg/injection, schedule: Q01DX009 (ip), vehicle: saline) 183 % of control; under setting [14], 100 % of control.

As to `CSCC(N)CO` (stereo not drawn), the T/C is 94 % of control under setting [14]; 100 % of control (dose: 100.0 mg/kg/injection, schedule: Q04DX003 (ip), vehicle: saline); 100 % of control under setting [15]; 103 % of control (dose: 200.0 mg/kg/injection, schedule: Q04DX003 (ip), vehicle: saline); 100 % of control under setting [16]; 103 % of control (dose: 400.0 mg/kg/injection, schedule: Q04DX003 (ip), vehicle: saline).

For `COc1ccc(NC(=O)C2C3C=CC(C3)C2C(=O)Nc2ccc(OC)cc2)cc1` (stereo not drawn), the T/C under setting [17] was 100 % of control, the T/C under setting [18] is 87 % of control and the T/C under setting [19] is 91 % of control.

For the compound `CCCCCCCCCCCCC(=O)O`, the T/C was 98 % of control under setting [20], 98 % of control under setting [21] and 105 % of control under setting [22].

As for `NCCc1cnc(N=Nc2ccc(S(N)(=O)=O)cc2)[nH]1`, the T/C was 93 % of control under setting [17], 96 % of control under setting [18] and 86 % of control under setting [19].

With `CCOC(=O)CC(C[N+](=O)[O-])C(F)(F)F` (stereo not drawn), the T/C is, setting by setting: (dose: 100.0 mg/kg/injection, schedule: Q01DX001 (ip), vehicle: other) 103 % of control; (dose: 200.0 mg/kg/injection, schedule: Q01DX001 (ip), vehicle: other) 97 % of control; (dose: 400.0 mg/kg/injection, schedule: Q01DX001 (ip), vehicle: other) 103 % of control.

On to `CSc1ncnc2c1ncn2NC(=O)C1CCC(=O)N1` (stereo not drawn), for which the T/C was 104 % of control under setting [14]; 107 % of control under setting [4]; 104 % of control under setting [15]; 100 % of control under setting [6]; 106 % of control under setting [16]; 109 % of control under setting [8].

Turning to `CC(C)CC(C=NCC(CCN(C)C)(CC(C)C)c1cccc2ccccc12)(CCN(C)C)c1cccc2ccccc12` (stereo not drawn), the T/C runs as follows: (dose: 12.5 mg/kg/injection, schedule: Q01DX009 (ip), vehicle: Klucel (hydroxypropylcellulose) (HPC)) 106 % of control; (dose: 12.5 mg/kg/injection, schedule: Q04DX003 (ip), vehicle: Klucel (hydroxypropylcellulose) (HPC)) 106 % of control; (dose: 25.0 mg/kg/injection, schedule: Q01DX009 (ip), vehicle: Klucel (hydroxypropylcellulose) (HPC)) 88 % of control; under setting [23], 94 % of control; under setting [24], 92 % of control.

Turning to `COc1ccc(/C=C/c2cnc3ccccc3n2)cc1OC`, the T/C runs as follows: under setting [3], 91 % of control; under setting [4], 98 % of control; under setting [5], 100 % of control; under setting [6], 93 % of control; under setting [7], 92 % of control; under setting [8], 97 % of control.

Turning to `O=C(O)CCCN1CCCCC1`, the T/C is 103 % of control under setting [9], 100 % of control under setting [10] and 100 % of control under setting [11].

On to `O=S(=O)(F)c1cccc2nsnc12`, for which the T/C runs as follows: under setting [23], 95 % of control; under setting [24], 101 % of control; under setting [4], 87 % of control; (dose: 100.0 mg/kg/injection, schedule: Q04DX003 (ip), vehicle: carboxymethylcellulose (CMC)) 93 % of control; (dose: 400.0 mg/kg/injection, schedule: Q04DX003 (ip), vehicle: carboxymethylcellulose (CMC)) 104 % of control.

Turning to `CNC(=O)NC(C)=C(C#N)C#N`, the T/C runs as follows: (dose: 75.0 mg/kg/injection, schedule: Q01DX001 (ip), vehicle: saline) 94 % of control; (dose: 150.0 mg/kg/injection, schedule: Q01DX001 (ip), vehicle: saline) 111 % of control.

Consider `Cc1nc(N)c2c(ncn2C2OC(CO)C(O)C2O)n1` (stereo not drawn), for which the T/C is, setting by setting: (dose: 100.0 mg/kg/injection, schedule: Q01DX001 (ip), vehicle: saline) 100 % of control; (dose: 200.0 mg/kg/injection, schedule: Q01DX001 (ip), vehicle: saline) 108 % of control; (dose: 400.0 mg/kg/injection, schedule: Q01DX001 (ip), vehicle: saline) 105 % of control.

As to `CCOC(=O)/C=C(/Nc1ccc(C(=O)c2ccccc2)cc1)C(=O)OCC`, the T/C was 87 % of control (dose: 100.0 mg/kg/injection, schedule: Q01DX001 (ip), vehicle: acetone); 95 % of control (dose: 100.0 mg/kg/injection, schedule: Q04DX003 (ip), vehicle: acetone); 92 % of control (dose: 200.0 mg/kg/injection, schedule: Q01DX001 (ip), vehicle: acetone); 93 % of control (dose: 200.0 mg/kg/injection, schedule: Q04DX003 (ip), vehicle: acetone); 90 % of control (dose: 400.0 mg/kg/injection, schedule: Q01DX001 (ip), vehicle: acetone); 98 % of control (dose: 400.0 mg/kg/injection, schedule: Q04DX003 (ip), vehicle: acetone).

In the case of `CSc1nc(N=[N+]=[N-])n(C)n1`, the T/C reads like this: under setting [20], 95 % of control; under setting [21], 95 % of control; under setting [22], 92 % of control.

Take `CCc1ccc(N=Nc2c(F)c(F)c(NC(C)=O)c(F)c2F)cc1`: the T/C is 102 % of control (dose: 100.0 mg/kg/injection, schedule: Q01DX001 (ip), vehicle: carboxymethylcellulose (CMC)); 91 % of control (dose: 200.0 mg/kg/injection, schedule: Q01DX001 (ip), vehicle: carboxymethylcellulose (CMC)); 91 % of control (dose: 400.0 mg/kg/injection, schedule: Q01DX001 (ip), vehicle: carboxymethylcellulose (CMC)).

In the case of `COC1OC(CCl)C(Cl)C(OS(=O)(=O)c2ccc(C)cc2)C1OS(=O)(=O)c1ccc(C)cc1` (stereo not drawn), the T/C under setting [12] is 100 % of control; the T/C under setting [20] is 90 % of control; the T/C under setting [21] was 101 % of control; the T/C under setting [13] is 94 % of control; the T/C under setting [22] is 93 % of control.
